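Method: 48-hour compound exposure of cells in 96-well plates, five concentrations, linear interpolation of endpoints. GI50 is the concentration that inhibits growth by half.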 Calls of active or inactive are those of the source. Cut-off read from the data, not from the text of the source: active = GI50 up to about 1.1 µM and inactive = higher.
Assays:
Experiment in all cases: NCI tumour cell line growth inhibition, 48 h
K562 = system: K562
Hs-578T = system: Hs-578T
HCT-116 = system: HCT-116
MOLT-4 = system: MOLT-4
SNB-75 = system: SNB-75
SK-MEL-28 = system: SK-MEL-28
SK-MEL-5 = system: SK-MEL-5
OVCAR-3 = system: OVCAR-3
EKVX = system: EKVX
RXF 393 = system: RXF 393
CCRF-CEM = system: CCRF-CEM
SW-620 = system: SW-620
SF-539 = system: SF-539
COLO 205 = system: COLO 205
HT-29 = system: HT-29
UO-31 = system: UO-31
HOP-62 = system: HOP-62
ACHN = system: ACHN
786-0 = system: 786-0
BT-549 = system: BT-549
OVCAR-5 = system: OVCAR-5
KM12 = system: KM12
T47D = system: T47D
NCI-H460 = system: NCI-H460
CAKI-1 = system: CAKI-1
HCC 2998 = system: HCC 2998
IGROV-1 = system: IGROV-1
NCI-H522 = system: NCI-H522
SF-268 = system: SF-268
DU-145 = system: DU-145
MDA-MB-231 = system: MDA-MB-231
A549 = system: A549
NCI/ADR-RES = system: NCI/ADR-RES
Malme-3M = system: Malme-3M
OVCAR-8 = system: OVCAR-8
HCT-15 = system: HCT-15
UACC-62 = system: UACC-62
NCI-H23 = system: NCI-H23
NCI-H226 = system: NCI-H226
HOP-92 = system: HOP-92
MCF7 = system: MCF7
SK-MEL-2 = system: SK-MEL-2
A498 = system: A498
SK-OV-3 = system: SK-OV-3
SN12C = system: SN12C
UACC-257 = system: UACC-257
LOX IMVI = system: LOX IMVI
OVCAR-4 = system: OVCAR-4
U-251 = system: U-251
TK-10 = system: TK-10
SF-295 = system: SF-295
SNB-19 = system: SNB-19

`CC(C)(C)c1ccc(O)c(C(O)c2cccnc2)c1` (centres undefined) was tested, and the GI50 (K562) was 81.5 µM (inactive), the GI50 (Hs-578T) was > 100 µM (inactive) and the GI50 (HCT-116) was > 100 µM (inactive). The GI50 (MOLT-4) was > 100 µM (inactive), the GI50 (SNB-75) was 57 µM (inactive) and the GI50 (SK-MEL-28) was > 100 µM (inactive). The GI50 (SK-MEL-5) was 35 µM (inactive), the GI50 (OVCAR-3) was > 100 µM (inactive) and the GI50 (EKVX) was > 100 µM (inactive). For the same compound, the GI50 (RXF 393) was > 100 µM (inactive), the GI50 (CCRF-CEM) was 96.6 µM (inactive) and the GI50 (SW-620) was > 100 µM (inactive). The GI50 (SF-539) was > 100 µM (inactive), the GI50 (COLO 205) was > 100 µM (inactive) and the GI50 (HT-29) was > 100 µM (inactive). The GI50 (UO-31) was > 100 µM (inactive), the GI50 (HOP-62) was > 100 µM (inactive) and the GI50 (ACHN) was > 100 µM (inactive). The GI50 (786-0) was > 100 µM (inactive), the GI50 (BT-549) was > 100 µM (inactive) and the GI50 (OVCAR-5) was > 100 µM (inactive). The GI50 (KM12) was > 100 µM (inactive), the GI50 (T47D) was 5.87 µM (inactive) and the GI50 (NCI-H460) was > 100 µM (inactive). The GI50 (CAKI-1) was > 100 µM (inactive), the GI50 (HCC 2998) was 76 µM (inactive) and the GI50 (IGROV-1) was > 100 µM (inactive). For the same compound, the GI50 (NCI-H522) was > 100 µM (inactive), the GI50 (SF-268) was > 100 µM (inactive) and the GI50 (DU-145) was > 100 µM (inactive). The GI50 (MDA-MB-231) was > 100 µM (inactive), the GI50 (A549) was > 100 µM (inactive) and the GI50 (NCI/ADR-RES) was 94.6 µM (inactive). The GI50 (Malme-3M) was > 100 µM (inactive), the GI50 (OVCAR-8) was > 100 µM (inactive) and the GI50 (HCT-15) was 72.1 µM. The GI50 (UACC-62) was 16.6 µM (inactive), the GI50 (NCI-H23) was > 100 µM (inactive) and the GI50 (NCI-H226) was > 100 µM (inactive).
`CCCCCCC(C)CC(CCCCCC)NCCOC(=O)c1ccc([N+](=O)[O-])cc1` (centres undefined) was tested, and the GI50 (HOP-92) was 5.82 µM (inactive), the GI50 (MCF7) was 7.16 µM (inactive) and the GI50 (Hs-578T) was 17.2 µM (inactive). For the same compound, the GI50 (HCT-116) was 8.18 µM (inactive), the GI50 (SK-MEL-2) was 14.1 µM (inactive) and the GI50 (SNB-75) was 16 µM (inactive). The GI50 (A498) was 18.4 µM (inactive), the GI50 (SK-OV-3) was 14.9 µM (inactive) and the GI50 (SK-MEL-5) was 9.68 µM (inactive). For the same compound, the GI50 (EKVX) was 8.71 µM (inactive), the GI50 (SN12C) was 10.7 µM (inactive) and the GI50 (CCRF-CEM) was 4.52 µM (inactive). The GI50 (SW-620) was 12.8 µM (inactive), the GI50 (SF-539) was 13 µM (inactive) and the GI50 (COLO 205) was 3.18 µM (inactive). The GI50 (HT-29) was 4.04 µM (inactive), the GI50 (UACC-257) was 4.98 µM (inactive) and the GI50 (UO-31) was 10.4 µM (inactive). For the same compound, the GI50 (LOX IMVI) was 4.12 µM (inactive), the GI50 (HOP-62) was 14.3 µM (inactive) and the GI50 (ACHN) was 13.3 µM (inactive). For the same compound, the GI50 (786-0) was 12.6 µM (inactive), the GI50 (BT-549) was 15.4 µM (inactive) and the GI50 (OVCAR-5) was 18.5 µM (inactive). The GI50 (KM12) was 10.1 µM (inactive), the GI50 (T47D) was 10.7 µM (inactive) and the GI50 (HCC 2998) was 2.02 µM (inactive). The GI50 (OVCAR-4) was 11.5 µM (inactive), the GI50 (IGROV-1) was 12.3 µM (inactive) and the GI50 (NCI-H522) was 12.1 µM (inactive). For the same compound, the GI50 (SF-268) was 13.8 µM (inactive), the GI50 (DU-145) was 12.2 µM (inactive) and the GI50 (U-251) was 11.1 µM (inactive). For the same compound, the GI50 (MDA-MB-231) was 6.71 µM (inactive), the GI50 (A549) was 15.1 µM (inactive) and the GI50 (NCI/ADR-RES) was 13.4 µM (inactive). For the same compound, the GI50 (TK-10) was 10.6 µM (inactive), the GI50 (Malme-3M) was 11.1 µM (inactive) and the GI50 (OVCAR-8) was 5.66 µM (inactive). The GI50 (HCT-15) was 10.1 µM, the GI50 (SF-295) was 15.2 µM (inactive) and the GI50 (UACC-62) was 13 µM (inactive). For the same compound, the GI50 (NCI-H23) was 14.6 µM (inactive), the GI50 (SNB-19) was 15.6 µM (inactive) and the GI50 (NCI-H226) was 13.9 µM (inactive).
